Data published in ChEMBL document CHEMBL1201862, “PubChem BioAssay data set” (2004).
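Method: 48-hour compound exposure of cells in 96-well plates, five concentrations, linear interpolation of endpoints. At the GI50, growth is halved.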 Activity calls are given as the source filed them. No stated cut-off is given here; in the data, active = GI50 up to about 1.1 µM and inactive = higher.

Experiments:
Assay in all cases: growth of human tumour cells (NCI), 48 h
[1] = test system: Malme-3M
[2] = test system: OVCAR-8
[3] = test system: COLO 205
[4] = test system: SF-539
[5] = test system: SNB-19
[6] = test system: PC-3
[7] = test system: LOX IMVI
[8] = test system: OVCAR-4
[9] = test system: HOP-62
[10] = test system: MDA-N
[11] = test system: NCI-H522
[12] = test system: OVCAR-3
[13] = test system: M14
[14] = test system: SK-MEL-5
[15] = test system: HOP-92
[16] = test system: HCC 2998
[17] = test system: UACC-62
[18] = test system: MDA-MB-435
[19] = test system: SF-295
[20] = test system: A498

Measured: GI50

COC(=O)CNC(=O)CNC(=O)CSc1nnc(COc2ccc(Cl)cc2)n1-c1ccccc1
inactive: [1] 18.7 µM | [2] > 100 µM | [3] > 100 µM | [4] > 100 µM | [5] 86.3 µM | [6] 52.7 µM | [7] 23.2 µM | [8] > 100 µM | [9] > 100 µM | [10] 23.7 µM | [11] 5.46 µM | [12] 19.8 µM | [13] 37.4 µM | [14] 22.4 µM | [15] 19.2 µM | [16] 42 µM | [17] 17.5 µM | [18] 18.7 µM | [19] > 100 µM | [20] > 100 µM

CC(=O)NNc1nc(C)c(C(/C=C/c2cccc([N+](=O)[O-])c2)=N/NC(=S)NN)s1
inactive: [1] > 100 µM | [2] > 100 µM | [3] > 100 µM | [4] > 100 µM | [5] > 100 µM | [6] > 100 µM | [7] > 100 µM | [8] > 100 µM | [9] 91 µM | [10] > 100 µM | [11] > 100 µM | [12] > 100 µM | [13] > 100 µM | [14] > 100 µM | [15] > 100 µM | [16] > 100 µM | [17] > 100 µM | [18] > 100 µM | [19] > 100 µM | [20] > 100 µM

COc1c(CC=C(C)C)c(O)c(C(CC(C)C)c2c(O)c3c(c(C(C)=O)c2O)OC(C(C)(C)O)C3)c(O)c1C(C)=O (stereo not given)
inactive: [1] 3.91 µM | [2] 4.4 µM | [3] 3.21 µM | [4] 4.24 µM | [5] 5.09 µM | [6] 3.15 µM | [7] 4.78 µM | [8] 4.57 µM | [9] 5.2 µM | [10] 4.05 µM | [11] 3.42 µM | [12] 6.08 µM | [13] 6.05 µM | [14] 2.22 µM | [15] 2.71 µM | [16] 3.63 µM | [17] 4.94 µM | [18] 4.63 µM | [19] 4.55 µM | [20] 3.84 µM

Clc1ccc(Nc2nn3c(CCCCCCCCc4nnc5sc(Nc6ccc(Cl)cc6)nn45)nnc3s2)cc1
inactive: [1] > 100 µM | [2] > 100 µM | [3] > 100 µM | [4] > 100 µM | [5] 25.1 µM | [6] > 100 µM | [7] > 100 µM | [8] > 100 µM | [9] 38.3 µM | [10] > 100 µM | [11] > 100 µM | [12] > 100 µM | [13] > 100 µM | [14] > 100 µM | [15] > 100 µM | [16] > 100 µM | [17] > 100 µM | [18] > 100 µM | [19] 36 µM | [20] > 100 µM

O=C(SC1=NCCN1)c1cccc2ccccc12
inactive: [1] 78.9 µM | [2] 71.9 µM | [3] > 100 µM | [4] > 100 µM | [5] > 100 µM | [6] 42 µM | [7] > 100 µM | [8] 59.8 µM | [9] 55 µM | [10] 76 µM | [11] 19.5 µM | [12] 56.9 µM | [13] 67.6 µM | [14] 66.5 µM | [15] 42.1 µM | [16] > 100 µM | [17] > 100 µM | [18] 53.5 µM | [19] 36.8 µM | [20] > 100 µM

c1ccc(CSc2nnc3c4ccccc4c4ccccc4c3n2)cc1
inactive: [1] 86.1 µM | [2] 35.5 µM | [3] > 100 µM | [4] 31.4 µM | [5] 33.2 µM | [6] 64.9 µM | [7] 62.7 µM | [8] 48.1 µM | [9] 24.8 µM | [10] 56.1 µM | [11] 33.2 µM | [12] 21.7 µM | [13] > 100 µM | [14] > 100 µM | [15] 21.2 µM | [16] 51.1 µM | [17] 46 µM | [18] 58.1 µM | [19] 23.2 µM | [20] > 64.1 µM

Cc1cc(S(=O)(=O)NC(=C(C#N)C#N)[n+]2ccc(N(C)C)cc2)c([S-])cc1Cl
inactive: [1] > 100 µM | [2] > 100 µM | [3] > 100 µM | [4] > 100 µM | [5] > 100 µM | [6] > 100 µM | [8] 99.5 µM | [9] > 100 µM | [10] > 100 µM | [11] 42.3 µM | [12] > 100 µM | [13] > 100 µM | [14] > 100 µM | [15] 28.7 µM | [16] > 100 µM | [17] > 100 µM | [18] > 100 µM | [19] > 100 µM | [20] > 100 µM

Cc1cc(C)c2c(c1)CC1(Cc3c(C)cc(C)cc3C1=O)C2=O (stereo not given)
inactive: [1] 92.9 µM | [2] > 100 µM | [3] > 100 µM | [4] 35.8 µM | [5] > 100 µM | [6] > 100 µM | [7] > 100 µM | [8] 46.3 µM | [10] > 100 µM | [11] > 100 µM | [12] > 100 µM | [13] > 100 µM | [14] > 100 µM | [15] > 100 µM | [16] > 100 µM | [17] > 100 µM | [18] > 100 µM | [19] > 100 µM | [20] > 100 µM

CN(C)CCNC(=O)c1cc(NC(=O)c2cc(NC(=O)CC/C=C3/[C@@H]4CC[C@H]3N=N4)cn2C)cn1C
inactive: [1] 70.3 µM | [2] > 100 µM | [3] > 100 µM | [4] > 100 µM | [5] > 100 µM | [6] > 100 µM | [7] > 100 µM | [8] > 100 µM | [9] > 100 µM | [10] > 100 µM | [11] > 100 µM | [12] > 100 µM | [13] > 100 µM | [14] > 100 µM | [15] > 100 µM | [16] > 100 µM | [18] > 100 µM | [19] > 100 µM | [20] > 100 µM

CCN1CCN(c2nc3ccc([N+](=O)[O-])cc3nc2C(=O)c2ccccc2)CC1
inactive: [1] 13.1 µM | [2] 16.8 µM | [3] 16.2 µM | [4] 16.1 µM | [5] 26 µM | [6] 17.3 µM | [7] 4.98 µM | [9] 20.1 µM | [10] 18.7 µM | [11] 2.67 µM | [12] 16.8 µM | [13] 12.4 µM | [15] 17.8 µM | [16] 15.3 µM | [17] 16.9 µM | [18] 16.3 µM | [19] 16.7 µM | [20] 30.4 µM
